# Results published in patent US20040142851A1, “Hydrazinopeptoids and their uses for treating cancers” (priority 2001, published 2004).
# Peptide text beside a SMILES is read from it. * marks the point of attachment. Cbz = O=C(OCc1ccccc1)*
# Assays:
# XL2 cells [1] = experiment: FACS analysis, % of cells blocked in G2/M in XL2 cell cultures; type: cell-based, Xenopus
# Method: The molecules synthesized were tested in vitro on the proteolytic activities described of the proteasome, then in vivo on Xenopus (XL2) cell cultures. Knowledge of the cell cycle of XL2 cells has made it possible to carry out synchronization experiments and also to evaluate the duration of each of the phases of the cycle. […]
# [2] = biological target: purified proteasome (chymotrypsin activity) (Homo sapiens, UniProt P28074); experiment: Inhibition of the chymotrypsin catalytic activity of the purified proteasome; type: biochemical; settings: 2 mM compound
# Source text: In vitro analyses of the inhibitory potentialities of the Hydrazinoazapeptoids synthesized vis-à-vis the enzyme activities of the proteasome.
# The inhibitory potentialities of the hydrazinoazapeptoids have been quantified with respect to the chymotrypsin enzyme activities of the purified proteasome. The results are expressed as percentages of activity inhibition.
# Measurement of the inhibitory properties of the synthesized compounds on the chymotrypsin catalytic activity of the purified proteasome.
# XL2 cells [3] = experiment: Fluorescence microscopy analysis of the stages of mitosis; type: cell-based, Xenopus; settings: for % Anaphase + Telophase / % Metaphase / % Prophase: 50 cells blocked in mitosis
# Method: The molecules synthesized were tested in vitro on the proteolytic activities described of the proteasome, then in vivo on Xenopus (XL2) cell cultures. Knowledge of the cell cycle of XL2 cells has made it possible to carry out synchronization experiments and also to evaluate the duration of each of the phases of the cycle.
# Observation of the nuclear content makes it possible to determine the different stages of the mitosis. The following results were obtained using 50 cells blocked in mitosis. The first 7 inhibitors were studied using fluorescence microscopy.
# [4] = tested on: mouse leukaemia cell cultures; experiment: Antiproliferative effect on mouse leukaemia cell cultures; type: cell-based
# Source text: We have analyzed the effect of the retro compounds on mouse leukaemia cell cultures and confirm that among these products, three compounds have an antiproliferative effect. This effect has been observed on two other cell types, rat hepatocytes and a human breast cancer line.
compound,measurement,setting,value
"CC(C)C[C@@H](C=O)NC(=O)[C@H](CC(C)C)NC(=O)[C@H](CC(C)C)NC(=O)OCc1ccccc1 [MG132, benzyloxycarbonyl leucinyl-leucinyl-leucinal, reference compound] (Cbz-Leu-Leu-Leu-aldehyde)",% of cells blocked in G2/M,"XL2 cells [1]; 50 μM, 7 h",60.6%
"CC(C)CN(CC(=O)NN(CC(C)C)C(=O)C(F)(F)F)NC(=O)OC(C)(C)C [P1, Boc-N^αhLeu-azaLeu-CF3]",inhibition at 2000 µM,[2],29%
same,% of cells blocked in G2/M,"XL2 cells [1]; 145 μM, 7 h",9.2%
same,% Anaphase + Telophase,XL2 cells [3],51%
same,% Metaphase,XL2 cells [3],35%
same,% Prophase,XL2 cells [3],14%
same,melting point,,105 °C
COC(=O)N(CC(C)C)NC(=O)CN(CC(C)C)NC(=O)OC(C)(C)C [P2],inhibition at 2000 µM,[2],47%
same,% of cells blocked in G2/M,"XL2 cells [1]; 160 μM, 7 h",6.7%
same,% Anaphase + Telophase,XL2 cells [3],46%
same,% Metaphase,XL2 cells [3],36%
same,% Prophase,XL2 cells [3],18%
"CCCCN(NC(=O)C(=O)OCC)C(=O)CN(CC(C)C)NC(=O)OC(C)(C)C [P3, Boc-N^αhLeu-N-azaNorleu-CO2Et]",inhibition at 2000 µM,[2],31%
same,% of cells blocked in G2/M,"XL2 cells [1]; 144 μM, 4 h",14.9%
same,% of cells blocked in G2/M,"XL2 cells [1]; 144 μM, 6 h",15.2%
same,% of cells blocked in G2/M,"XL2 cells [1]; 144 μM, 8 h",13.8%
same,% Anaphase + Telophase,XL2 cells [3],53%
same,% Metaphase,XL2 cells [3],26%
same,% Prophase,XL2 cells [3],21%
same,melting point,,105 °C
"CCCCN(NC(=O)C(F)(F)F)C(=O)CN(CC(C)C)NC(=O)OC(C)(C)C [P4, Boc-N^αhLeu-N-azaNorleu-CF3]",inhibition at 2000 µM,[2],29%
same,% of cells blocked in G2/M,"XL2 cells [1]; 145 μM, 4 h",16.5%
same,% of cells blocked in G2/M,"XL2 cells [1]; 145 μM, 8 h",13.4%
same,% Anaphase + Telophase,XL2 cells [3],42%
same,% Metaphase,XL2 cells [3],42%
same,% Prophase,XL2 cells [3],16%
"CCOC(=O)C(=O)N(CC(C)C)NC(=O)CN(CC(C)C)NC(=O)OC(C)(C)C [P5, Boc-N^αhLeu-azaLeu-CO2Et]",inhibition at 2000 µM,[2],32%
same,% of cells blocked in G2/M,"XL2 cells [1]; 144 μM, 7 h",5.2%
same,% Anaphase + Telophase,XL2 cells [3],37%
same,% Metaphase,XL2 cells [3],45%
same,% Prophase,XL2 cells [3],18%
same,melting point,,147 °C
CC(C)CN(CC(=O)N(CC(N)=O)CC(C)C)NC(=O)OC(C)(C)C [P6],inhibition at 2000 µM,[2],38%
same,% of cells blocked in G2/M,"XL2 cells [1]; 167 μM, 7 h",9.2%
same,inhibitory selectivity during the different stages of mitosis (in words),XL2 cells [3],mostly blocks cells at the end of mitosis
same,% Anaphase + Telophase,XL2 cells [3],58%
same,% Metaphase,XL2 cells [3],24%
same,% Prophase,XL2 cells [3],18%
"CC(C)CN(CC(=O)N(CC(C)C)NC(N)=O)NC(=O)OC(C)(C)C [P7, Boc-N^αhLeu-N-azaLeu-CONH2]",inhibition at 2000 µM,[2],23%
same,% of cells blocked in G2/M,"XL2 cells [1]; 167 μM, 7 h",12.3%
same,inhibitory selectivity during the different stages of mitosis (in words),XL2 cells [3],much less selective
same,% Anaphase + Telophase,XL2 cells [3],38%
same,% Metaphase,XL2 cells [3],35%
same,% Prophase,XL2 cells [3],27%
same,melting point,,138 °C
"CC(C)CN(CC(=O)N(CC(C)C)NC(=O)C(F)(F)F)NC(=O)OC(C)(C)C [P8, Boc-N^αhLeu-N-azaLeu-CF3]",inhibition at 2000 µM,[2],28%
same,% of cells blocked in G2/M,"XL2 cells [1]; 146 μM, 7 h",19.1%
same,melting point,,110 °C
"CCOC(=O)C(=O)NN(CC(C)C)C(=O)CN(CC(C)C)NC(=O)OC(C)(C)C [P9, Boc-N^αhLeu-N-azaLeu-CO2Et]",inhibition at 2000 µM,[2],30%
same,% of cells blocked in G2/M,"XL2 cells [1]; 144 μM, 7 h",14.1%
CC(C)CN(CC(=O)N(CC(C)C)NC(=O)CC#N)NC(=O)OC(C)(C)C [P12],inhibition at 2000 µM,[2],48%
same,% of cells blocked in G2/M,"XL2 cells [1]; 156 μM, 7 h",23.5%
"CC(C)CN(CC(=O)N(CC(C)C)NC=O)NC(=O)OC(C)(C)C [P13, Boc-N^αhLeu-N-azaLeu-H]",inhibition at 2000 µM,[2],35%
same,% of cells blocked in G2/M,"XL2 cells [1]; 174 μM, 7 h",20.8%
same,melting point,,124 °C
"CC(C)CN(CC(=O)N(CC(C)C)NC(=O)CBr)NC(=O)OC(C)(C)C [P14, Boc-N^αhLeu-N-azaLeu-CH2Br]",% inhibition of chymotrypsin activity of the purified proteasome,[2],71%
same,inhibition at 2000 µM,[2],70%
same,% of cells blocked in G2/M,"XL2 cells [1]; 2 μM, 0.5 h",48.2%
same,% of cells blocked in G2/M,"XL2 cells [1]; 4 μM, 0.5 h",44.8%
same,% of cells blocked in G2/M,"XL2 cells [1]; 11 μM, 0.5 h",47.4%
same,% of cells blocked in G2/M,"XL2 cells [1]; 22 μM, 0.5 h",46.2%
same,% of cells blocked in G2/M,"XL2 cells [1]; 45 μM, 0.5 h",48.3%
same,% of cells blocked in G2/M,"XL2 cells [1]; 91 μM, 0.5 h",50.2%
same,% of cells blocked in G2/M,"XL2 cells [1]; 137 μM, 1 h",50.2%
same,concentration in the medium necessary to obtain a blockage in mitosis,XL2 cells [1]; XL2 cell cultures,2 µM
same,"percentage of cells blocked in mitosis, compared with ALLN (in words)",XL2 cells [1]; XL2 cell cultures,activity comparable to that of the ALLN
"CC(C)CN(CC(=O)N(CC(C)C)/N=C/c1cccc(B(O)O)c1)NC(=O)OC(C)(C)C [P15, Boc-N^αhLeu-N-azaLeu-CH-Ph-m-B(OH)2]",inhibition at 2000 µM,[2],38%
same,% of cells blocked in G2/M,"XL2 cells [1]; 133 μM, 7 h",35.8%
"CC(C)CN(CC(=O)N(CC(C)C)/N=C/c1ccccc1B(O)O)NC(=O)OC(C)(C)C [P15o, Boc-N^αhLeu-N-azaLeu-CH-Ph-o-B(OH)2]",melting point,,159 °C
"CC(C)CN(CC(=O)N(CC(C)C)/N=C/c1ccc(B(O)O)cc1)NC(=O)OC(C)(C)C [P15p, Boc-N^αhLeu-N-azaLeu-CH-Ph-p-B(OH)2]",melting point,,186 °C
CCSCC(=O)NN(CC(C)C)C(=O)CN(CC(C)C)NC(=O)OC(C)(C)C [P16],inhibition at 2000 µM,[2],34%
same,% of cells blocked in G2/M,"XL2 cells [1]; 143 μM, 7 h",24.2%
"CC(C)CN(CC(=O)N(Cc1ccccc1)NC(=O)CBr)NC(=O)OC(C)(C)C [P17, Boc-N^αhLeu-N-azaPhe-COCH2Br]",% inhibition of chymotrypsin activity of the purified proteasome,[2],80%
same,inhibition at 2000 µM,[2],70%
same,% of cells blocked in G2/M,"XL2 cells [1]; 21 μM, 0.5 h",46.8%
same,% of cells blocked in G2/M,"XL2 cells [1]; 42 μM, 0.5 h",47.3%
same,% of cells blocked in G2/M,"XL2 cells [1]; 85 μM, 0.5 h",50.9%
same,% of cells blocked in G2/M,"XL2 cells [1]; 127 μM, 0.5 h",42.8%
same,% of cells blocked in G2/M,"XL2 cells [1]; 127 μM, 1 h",41.7%
same,% of cells blocked in G2/M,"XL2 cells [1]; 127 μM, 2 h",38.3%
same,"percentage of cells blocked in mitosis, compared with ALLN (in words)",XL2 cells [1]; XL2 cell cultures,activity comparable to that of the ALLN
same,melting point,,135 °C
BrH2COC—N^αhPhe-N-azaLeu-Z [PR2],effect on proliferation (in words),[4],inhibit proliferation
same,effect on viability of the cells / cell death (in words),[4],cause cell death
BrH2COC—N^αhPhe-azaLeu-Z [PR3],effect on proliferation (in words),[4],inhibit proliferation
same,effect on viability of the cells / cell death (in words),[4],cause cell death
F3COC—N^αhLeu-N-azaLeu-Z [PR5],effect on proliferation (in words),[4],inhibit proliferation
same,effect on viability of the cells / cell death (in words),[4],cause cell death
PhCO—N^αhLeu-N-azaLeu-CF3 [P11],% inhibition of chymotrypsin activity of the purified proteasome,[2],40%
same,% of cells blocked in G2/M,"XL2 cells [1]; 144 μM, 7 h",17.2%
PhCO—N^αhLeu-N-azaLeu-CO2Et [P10],% inhibition of chymotrypsin activity of the purified proteasome,[2],42%
same,% of cells blocked in G2/M,"XL2 cells [1]; 143 μM, 7 h",23.1%
Z-N^αhLeu-N-azaLys-COCH2Br [P22],effect on proliferation (in words),[4],inhibit proliferation
same,effect on viability of the cells / cell death (in words),[4],cause cell death
Z-N^αhLeu-N-azaPhe-CH2Br [P21],effect on proliferation (in words),[4],proliferation inhibitors
same,effect on viability of the cells / cell death (in words),[4],do not affect the viability of the cells
m-B(OH)2-Ph-HC═N^αhPhe-N-azaLeu-Z [PR8],effect on proliferation (in words),[4],inhibit proliferation
same,effect on viability of the cells / cell death (in words),[4],cause cell death
o-B(OH)2-Ph-HC═N^αhLeu-N-azaLeu-Z [PR6],effect on proliferation (in words),[4],proliferation inhibitors
same,effect on viability of the cells / cell death (in words),[4],do not affect the viability of the cells
o-B(OH)2-Ph-HC═N^αhPhe-N-azaLeu-Z [PR7],effect on proliferation (in words),[4],proliferation inhibitors
same,effect on viability of the cells / cell death (in words),[4],do not affect the viability of the cells
